Literature values in patent US8571804B2, “Disease treatment by predicting drug association” (Pharnext, priority 2007, dated 2013).

Experiments:
[1] = tested on: PMP22-transgenic CMT1A rat model

SMILES | clinical symptoms ([1]; compared with placebo-treated controls) | expression of PMP22 protein ([1]; transgenic rodents, antiprogestin treatment) | clinical features (CMT animal models)
CN(C)c1ccc([C@H]2C[C@]3(C)[C@@H](CC[C@]3(O)CCCO)[C@@H]3CCC4=CC(=O)CCC4=C32)cc1 [onapristone] | significantly improved clinical symptoms | decreased expression of PMP22 protein | –
O=C1O[C@H]([C@@H](O)CO)C(O)=C1O [ascorbic acid] | – | – | improve clinical features
